This passage reports IC50 results from patent publication US5773646A, “Meta-substituted phenylene derivatives” (G. D. Searle & Co., priority 1997, dated 1998).

Where a name gives a salt, the structure may show the parent alone.

The target of experiment [1] is T1, Human fibrinogen receptor (αIIb β3) (Homo sapiens, UniProt P05106+P08514).
T1 construct: Human fibrinogen receptor (αIIb β3) was purified from outdated platelets; from tissue; host or cells: outdated human platelets
As to the kind of experiment: Purified IIb/IIIa receptor assay (solid phase receptor assay, biotinylated vitronectin competition). Conditions: inhibition of 50% of the maximum binding of biotinylated vitronectin; 1 nM labeled ligand, 2 hours, room temperature, highest concentration of test compound 1.0×10^-4 M. In outline: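 Platelet-purified αIIbβ3 was coated at 100 ng/well in TBS with 1 mM Ca²⁺/Mg²⁺/Mn²⁺, pH 7.4, then BSA-blocked. Compound (up to 1.0×10⁻⁴ M final) competed with 1 nM biotinylated vitronectin for 2 h at room temperature. Bound ligand was detected with HRP anti-biotin at A450, normalized to maximum binding, and curve-fitted.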

Experiment [2] has as its target T2, Human vitronectin receptor (αv β3) (Homo sapiens, UniProt P05106+P06756).
T2 construct: Human vitronectin receptor(αv β3) was purified from human placenta; from tissue; host or cells: human placenta
Description: Vitronectin adhesion assay (solid phase receptor assay, biotinylated vitronectin competition). Format: binding. The conditions noted are these: inhibition of 50% of the maximum binding of biotinylated vitronectin; 1 nM labeled ligand, 2 hours, room temperature, highest concentration of test compound 1.0×10^-4 M; read-out: AvB3 IC50. The method in brief: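 Placenta-purified αvβ3 coated at 1.0 μg/mL in TBS (1 mM Ca, Mg, Mn, pH 7.4), overnight 4 °C. Compound competed 2 h at RT with 1 nM biotinylated vitronectin (final; top compound 1.0×10^-4 M); bound ligand detected by HRP anti-biotin/OPD at 450 nm, normalized to no-competitor controls, four-parameter fit.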

In the case of `CNC(=NC#N)Nc1cccc(C(=O)NCc2cccc(C(CC(=O)O)c3ccccc3)c2)c1` (stereo not drawn) [Example 55, 3-[[[[3-[[(cyanoimino)(methylamino)methyl]amino]phenyl]carbonyl]amino]methyl]-β-phenylbenzenepropanoic acid], the IC50 in experiment [1] is 13.4 µM; in experiment [2], 0.108 µM.
With `C[C@H](CC(=O)O)c1cccc(CNC(=O)c2cccc(NC(=N)N)c2)c1` [Example 56, 3-[[[[3-[(aminoiminomethyl)amino]phenyl]carbonyl]amino]methyl]-βR-methylbenzenepropanoic acid, trifluoroacetate salt hydrate], the results for the IC50 in experiment [1] and in experiment [2] were 1.31 µM and 0.00688 µM, respectively.
`C[C@@H](CC(=O)O)c1cccc(CNC(=O)c2cccc(NC(=N)N)c2)c1` [Example 57, 3-[[[[3-[(aminoiminomethyl)amino]phenyl]carbonyl]amino]methyl]-βS-methylbenzenepropanoic acid]: the IC50 in experiment [1] is 17.6 µM; in experiment [2], 0.189 µM.
For `O=C(O)CCc1cccc(OCC(O)c2cccc(NC3=NCCN3)c2)c1` (stereo not shown) [Example 71, 3-[2-[3-[(4,5-dihydro-1H-imidazol-2-yl)amino]phenyl]-2-hydroxyethoxy]benzenepropanoic acid, trifluoroacetate salt], in that order: 9.75 µM and 0.0304 µM.
As for `O=C(O)COc1cccc(C(=O)/C=C/c2cccc(NC3=NCCN3)c2)c1` [Example 72, 2-[3-[3-[3-[(4,5-dihydro-1H-imidazol-2-yl)amino]phenyl]-1-oxo-2-propenyl]phenoxy]acetic acid, trifluoroacetate salt hydrate], the IC50 in experiment [1] was 8.1 µM; in experiment [2], 0.168 µM.
For `N=C(N)Nc1cccc(/C=C/C(=O)c2cccc(OCC(=O)O)c2)c1` [Example 73, 2-[3-[3-[3-[(aminoiminomethyl)amino]phenyl]-1-oxopropenyl]phenoxy]acetic acid, monohydrochloride], in that order: 11.3 µM and 0.589 µM.
For `N=C(N)Nc1cccc(C#Cc2cccc(C(CC(=O)O)c3ccccc3)c2)c1` (stereo not drawn) [Example 74, 3-[2-[3-[(aminoiminomethyl)amino]phenyl]ethynyl]-β-phenylbenzenepropanoic acid, trifluoroacetate salt], the IC50 was 20.1 µM in experiment [1] and 1.48 µM in experiment [2].
`N=C(N)Nc1cccc(/C=C/c2cccc(C(CC(=O)O)c3ccccc3)c2)c1` (stereo not drawn) [Example 75, 3-[2E-[3-[(aminoiminomethyl)amino]phenyl]ethenyl]-β-phenylbenzenepropanoic Acid, Bis(trifluoroacetate) Salt]: the half-maximal inhibitory concentration (IC50) was found to be 6.15 µM in experiment [1] and 0.0545 µM in experiment [2].
For the compound `N=C(N)Nc1cccc(/C=C\c2cccc(C(CC(=O)O)c3ccccc3)c2)c1` (stereo not drawn) [Example 76, 3-[2Z-[3-[(aminoiminomethyl)amino]phenyl]ethenyl]-β-phenylbenzenepropanoic Acid, Bis(trifluoroacetate) Salt], the concentration for half-maximal inhibition (IC50) in experiment [1] was 1.77 µM; in experiment [2] it was 0.087 µM.
With `N=C(N)Nc1cccc(S(=O)(=O)Nc2cccc(C(CC(=O)O)c3cc(Cl)cc(Cl)c3)c2)c1` (stereo not drawn) [Example 77, β-[3-[[[3-[(aminoiminomethyl)amino]phenyl]sulfonyl]amino]phenyl]-3,5-dichlorobenzene Propanoic Acid, Trifluoroacetate Salt], the IC50 came out at 5.82 µM in experiment [1] and 0.0325 µM in experiment [2].
Turning to `N=C(N)Nc1cccc(S(=O)(=O)Nc2cccc(C(CC(=O)O)c3cc(F)cc(F)c3)c2)c1` (stereo not drawn) [Example 78, β-[3-[[[3-[(aminoiminomethyl)amino]phenyl]sulfonyl]amino]phenyl]-3,5-difluorobenzenepropanoic Acid, Trifluoroacetate Salt], the IC50 is 0.803 µM in experiment [1] and 0.00254 µM in experiment [2].
In the same order, the values of `N=C(N)Nc1cccc(S(=O)(=O)Nc2cccc(C(CC(=O)O)c3ccc(F)cc3)c2)c1` (stereo not drawn) [Example 79, β-[3-[[[3-[(aminoiminomethyl)amino]phenyl]sulfonyl]amino]phenyl]-4-fluorobenzenepropanoic Acid, Trifluoroacetate Salt] are 0.327 µM and 0.01 µM.
With `N=C(N)Nc1cccc(S(=O)(=O)Nc2cccc(C(CC(=O)O)c3cc(F)c(F)c(F)c3)c2)c1` (stereo not drawn) [Example 80, β-[3-[[[3-[(aminoiminomethyl)amino]phenyl]sulfonyl]amino]phenyl]-3,4,5-trifluorobenzenepropanoic Acid, Trifluoroacetate Salt], the IC50 in experiment [1] came to 1.37 µM; in experiment [2] it was 0.013 µM.
In the same order, the values of `N=C(N)Nc1cccc(S(=O)(=O)Nc2cccc(C(CC(=O)O)c3c(F)c(F)c(F)c(F)c3F)c2)c1` (stereo not drawn) [Example 81, β-[3-[[[3-[(aminoiminomethyl)amino]phenyl]sulfonyl]amino]phenyl]perfluorobenzenepropanoic Acid, Trifluoroacetate Salt] are 2.55 µM and 0.086 µM.
For the compound `N=C(N)Nc1cccc(S(=O)(=O)Nc2cccc(C(CC(=O)O)c3c(F)c(F)cc(F)c3F)c2)c1` (stereo not drawn) [Example 82, β-[3-[[[3-[(aminoiminomethyl)amino]phenyl]sulfonyl]amino]phenyl]-2,3,5,6-tetrafluorobenzenepropanoic Acid, Trifluoroacetate Salt], the IC50 in experiment [1] is 11.7 µM; in experiment [2], 0.191 µM.
Turning to `O=C(O)CC(c1cc(F)cc(F)c1)c1cccc(NS(=O)(=O)c2cccc(NC(=S)NCc3ccccc3)c2)c1` (stereo not drawn) [Example 83, 3,5-difluoro-β-[3-[[[3-[[[(phenylmethyl)amino]thiocarbonyl]amino]phenyl]sulfonyl]amino]phenyl]benzenepropanoic Acid], the IC50 in experiment [1] was determined as 18.9 µM; in experiment [2], 0.122 µM.
As to `O=C(O)CC(c1cc(F)cc(F)c1)c1cccc(NS(=O)(=O)c2cccc(NC=NCc3ccccc3)c2)c1` (stereo not drawn) [Example 84, 3,5-difluoro-β-[3-[[[3-[[[(phenylmethyl)imino]methyl]amino]phenyl]sulfonyl]amino]phenyl]benzenepropanoic Acid, Trifluoroacetate Salt], the IC50 is 15.1 µM in experiment [1] and 0.082 µM in experiment [2].
In the case of `N=C(N)Nc1cccc(SCc2cccc(C(CC(=O)O)c3ccccc3)c2)c1` (stereo not drawn) [Example 87, 3-[[3-[(aminoiminomethyl)amino]phenylthio]methyl]-β-phenylbenzenepropanoic Acid, Trifluoroacetate Salt], the IC50 in experiment [1] came to 3.3 µM; in experiment [2], 0.0512 µM.
For `N=C(N)Nc1cccc([S+]([O-])Cc2cccc(C(CC(=O)O)c3ccccc3)c2)c1` (stereo not drawn) [Example 88, 3-[[[3-[(aminoiminomethyl)amino]phenyl]sulfinyl]methyl]-β-phenylbenzenepropanoic Acid, Trifluoroacetate Salt], in that order: 0.87 µM and 0.0196 µM.
In the same order, the values of `N=C(N)Nc1cccc(S(=O)(=O)Cc2cccc(C(CC(=O)O)c3ccccc3)c2)c1` (stereo not drawn) [Example 89, 3-[[[3-[(aminoiminomethyl)amino]phenyl]sulfonyl]methyl]-β-phenylbenzenepropanoic Acid, Trifluoroacetate Salt] are 0.799 µM and 0.00456 µM.
In the case of `NC(=O)N=C(N)Nc1cccc(S(=O)(=O)Nc2cccc(C(CC(=O)O)c3cc(Cl)cc(Cl)c3)c2)c1` (stereo not drawn) [Example 90, β-[3-[[[3-[[amino[(aminocarbonyl)imino]methyl]amino]phenyl]sulfonyl]amino]phenyl]-3,5-dichlorobenzenepropanoic Acid, Trifluoroacetate Salt], the IC50 was found to be 13.8 µM in experiment [1] and 0.0889 µM in experiment [2].
Regarding `NC(=O)N=C(N)Nc1cccc(S(=O)(=O)Nc2cccc(C(CC(=O)O)c3cc(F)cc(F)c3)c2)c1` (stereo not drawn) [Example 91, β-[3-[[[3-[[amino[(aminocarbonyl)imino]methyl]amino]phenyl]sulfonyl]amino]phenyl]-3,5-difluorobenzenepropanoic Acid, Trifluoroacetate Salt], the values for the IC50 in experiment [1] and in experiment [2] were 1.07 µM and 0.00839 µM, respectively.
In the same order, the values of `CCC(CC(=O)O)c1cccc(NS(=O)(=O)c2cccc(NC(=N)N)c2)c1` (stereo not drawn) [Example 94, 3-[[[3-[(aminoiminomethyl)amino]phenyl]sulfonyl]amino]-β-ethylbenzenepropanoic Acid, Trifluoroacetate Salt] are 2.05 µM and 0.0121 µM.
In the same order, the values of `CCC(CC(=O)O)c1cccc(NS(=O)(=O)c2cccc(NC(N)=NC(N)=O)c2)c1` (stereo not drawn) [Example 95, 3-[[[3-[[amino[(aminocarbonyl)imino]methyl]amino]phenyl]sulfonyl]amino]-β-ethylbenzenepropanoic Acid, Trifluoroacetate Salt] are 8.45 µM and 0.0357 µM.
In the same order, the values of `N=C(N)Nc1cccc(COc2cccc(C(CC(=O)O)c3ccccc3)c2)c1` (stereo not drawn) [Example 96, 3-[[3-[(aminoiminomethyl)amino]phenyl]methoxy]-β-phenylbenzenepropanoic Acid, Trifluoroacetate Salt] are 2.28 µM and 0.435 µM.
With `O=C(O)CC(c1cc(F)cc(F)c1)c1cccc(NS(=O)(=O)c2cccc(NC3=NCCCN3)c2)c1` (stereo not drawn) [Example 97, 3,5-difluoro-β-[3-[[[3-[(1,4,5,6-tetrahydropyrimidin-2-yl)amino]phenyl]sulfonyl]amino]phenyl]benzenepropanoic Acid, Bis(trifluoroacetate) Salt], the IC50 in experiment [1] turned out to be 0.262 µM; in experiment [2], 0.00075 µM.

A word on the IC50: it is the point on the concentration scale where inhibition reaches its midpoint.
